In patent US20240207427A1, “SELECTIVE DRUG RELEASE FROM INTERNALIZED CONJUGATES OF BIOLOGICALLY ACTIVE COMPOUNDS” (priority 2021, published 2024):
Read-outs that look alike come from different tables or passages of the source.

Key:
[1] = tested on: melanoma cells (SK-MEL-5); assay: In vitro potency (CellTiter-Glo, 96 h), SK-MEL-5; type: cell-based; settings: Homo sapiens, camptothecin drugs, Table 13, CellTiter-Glo after 96 h exposure
Method: (§1) In vitro potency was assessed on multiple cancer cell lines. All cell lines were authenticated by STR profiling at IDEXX Bioresearch and cultured for no more than 2 months after resuscitation. Cells cultured in log-phase growth were seeded for 24 hours in 96-well plates containing […] RPMI 1640 supplemented with 20% FBS. Following addition of test articles, cells were incubated with test articles for 4 days at 37 0° C. After 96 hours, growth inhibition was assessed by CellTiterGlo® (Promega, Madison, WI) and luminescence was measured on a plate reader.
(§2) Cell viability was determined by CellTiter-Glo staining after 96 h exposure to the compound. ND=Not Determined. The cancer cell lines tested are renal carcinoma cells (786-0), melanoma cells (A2058), pancreatic cancer cells (BxPC3), non-small-cell lung cancer cells (Calu1), anaplastic large cell lymphoma cells (DEL, DELBVR, Karpas299), Hodgkin's lymphoma cells (L540cy), (Ls 174T), breast cancer cells (MDA-MB-231), acute myeloid leukemia cells (MOLM-13), B-lymphocyte cancer cells (SU-DHL4), multiple myeloma cells (MM.1R), (U266), and melanoma cells (SK-MEL-5).
as §1, with “FBS. Serial dilutions of antibody-drug conjugates in cell culture media were prepared at 4× working concentrations, and 50 μL of each dilution was added to the 96-well plates.” for “FBS.”, “37°” for “37 0°”
(§3) In vitro potency was assessed on multiple cancer cell lines. […] After 96 hours, growth inhibition was assessed by CellTiterGlo® (Promega, Madison, WI) and luminescence was measured on a plate reader.

[2] = tested on: pancreatic cancer cells (BxPC3); assay: In vitro potency (CellTiter-Glo, 96 h), BxPC3; type: cell-based; settings: Homo sapiens, BXPC-3, 96 h
How it was run: (§4)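 Growth inhibition after 96 h at 37 °C with test article, measured by luminescence; cells in RPMI 1640, 20% FBS.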

[3] = tested on: renal carcinoma cells (786-O); assay: In vitro potency (CellTiter-Glo, 96 h), 786-O; type: cell-based; settings: Homo sapiens, 786-0, 96 h
How it was run: (§5)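 Cells in log-phase growth seeded 24 h in RPMI 1640 with 20% FBS, then exposed to serially diluted ADC or CPT free drug for 96 h at 37 °C. Growth inhibition read by CellTiter-Glo luminescence; IC50 reported in ng/mL or nmol/L.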

U266 cells = assay: In vitro potency (CellTiter-Glo, 96 h), U266; type: cell-based; settings: Homo sapiens, U-266; camptothecin drugs, Table 13; CellTiter-Glo after 96 h exposure
Method: as §1, §2
as §1, with “FBS. Serial dilutions of antibody-drug conjugates in cell culture media were prepared at 4× working concentrations, and 50 μL of each dilution was added to the 96-well plates.” for “FBS.”, “37°” for “37 0°”
as §3

[4] = tested on: Hodgkin's lymphoma cells (L540cy); assay: In vitro potency (CellTiter-Glo, 96 h), L540cy; type: cell-based
How it was run: as §5

[5] = tested on: multiple myeloma cells (MM.1R); assay: In vitro potency (CellTiter-Glo, 96 h), MM.1R; type: cell-based; settings: camptothecin drugs, Table 13, CellTiter-Glo after 96 h exposure
Method: as §1, §2
as §1, with “FBS. Serial dilutions of antibody-drug conjugates in cell culture media were prepared at 4× working concentrations, and 50 μL of each dilution was added to the 96-well plates.” for “FBS.”, “37°” for “37 0°”
as §3

[6] = tested on: acute myeloid leukemia cells (MOLM-13); assay: In vitro potency (CellTiter-Glo, 96 h), MOLM-13; type: cell-based; settings: Homo sapiens, MOLM-13, 96 h
How it was run: as §4

[7] = tested on: B-lymphocyte cancer cells (SU-DHL4); assay: In vitro potency (CellTiter-Glo, 96 h), SU-DHL-4; type: cell-based; settings: Homo sapiens, SU-DHL-4, 96 h
How it was run: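 Authenticated lines (STR), used within 2 months of resuscitation, were seeded 24 h before treatment. Exposure to ADC dilutions lasted 96 h at 37 °C in RPMI 1640 with 20% FBS; viability was quantified luminescently.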

[8] = tested on: anaplastic large cell lymphoma cells (Karpas299); assay: In vitro potency (CellTiter-Glo, 96 h), Karpas299; type: cell-based; settings: Homo sapiens, KARPAS-299, 96 h, 96 h
How it was run: as §5

[9] = tested on: anaplastic large cell lymphoma cells (DEL); assay: In vitro potency (CellTiter-Glo, 96 h), DEL; type: cell-based
How it was run: as §5

melanoma cells (A2058) = assay: In vitro potency (CellTiter-Glo, 96 h), A2058; type: cell-based; settings: Homo sapiens, A2058, 96 h, read-out: A2058 IC50
How it was run: (§6)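 Medium: RPMI 1640 + 20% FBS. Pre-seeding: 24 h. Treatment: ADC or CPT free drug serial dilutions, 96 h, 37 °C. Read-out: luminescence; IC50 in ng/mL and nmol/L.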

[10] = tested on: non-small-cell lung cancer cells (Calu1); assay: In vitro potency (CellTiter-Glo, 96 h), Calu1; type: cell-based; settings: Homo sapiens, Calu-1, 96 h, read-out: Calu1 IC50
How it was run: as §6

[11] = tested on: breast cancer cells (MDA-MB-231); assay: In vitro potency (CellTiter-Glo, 96 h), MDA-MB-231; type: cell-based; settings: Homo sapiens, MDA-MB-231, 96 h, 96 h
How it was run: as §5

[12] = tested on: anaplastic large cell lymphoma cells (DELBVR); assay: In vitro potency (CellTiter-Glo, 96 h), DELBVR; type: cell-based
How it was run: as §5

Ls174T cells = assay: In vitro potency (CellTiter-Glo, 96 h), Ls174T; type: cell-based; settings: Homo sapiens, LS174T, 96 h
How it was run: as §6

[13] = tested on: h00-7, non-binding control antibody h00 conjugated with mp-Leu-Ala-Glu-PABC-MMAE (Drug Linker compound 7)
[14] = tested on: h00-5, non-binding control antibody h00 conjugated with mp-D-Leu-Ala-Glu-PABC-MMAE (Drug Linker compound 5)
[15] = tested on: h00-37, non-binding control antibody h00 conjugated with mp-val-cit-PABC-MMAE (compound 37)
[16] = read-out: IC50 BxPC3, camptothecin drugs, Table 13, CellTiter-Glo after 96 h exposure
[17] = read-out: IC50 786-O, camptothecin drugs, Table 13, CellTiter-Glo after 96 h exposure
[18] = read-out: IC50 L540cy, camptothecin drugs, Table 13, CellTiter-Glo after 96 h exposure
[19] = read-out: IC50 MOLM-13, camptothecin drugs, Table 13, CellTiter-Glo after 96 h exposure
[20] = read-out: IC50 SU-DHL-4, camptothecin drugs, Table 13, CellTiter-Glo after 96 h exposure

Molecule: CC[C@@]1(O)C(=O)OCc2c1cc1n(c2=O)Cc2c-1nc1cc3c(cc1c2CNc1ccc(N)cc1)OCO3 [Compound 7ab]
- IC50 [1]: 1 nM
- IC50 [2, 16]: 1 nM
- IC50 [3, 17]: 1 nM
- IC50 (U266 cells): 2 nM
- IC50 [4, 18]: 0.4 nM
- IC50 [5]: 0.4 nM
- IC50 [6, 19]: 0.3 nM
- IC50 [7, 20]: 0.4 nM

Molecule: CC[C@@]1(O)C(=O)OCc2c1cc1n(c2=O)Cc2c-1nc1cc3c(cc1c2CNc1ccccc1N)OCO3 [Compound 7ac]
- IC50 [1]: 4 nM
- IC50 [2, 16]: 5 nM
- IC50 [3, 17]: 2 nM
- IC50 (U266 cells): 8 nM
- IC50 [4, 18]: 2 nM
- IC50 [5]: 2 nM
- IC50 [6, 19]: 1 nM
- IC50 [7, 20]: 1 nM

Molecule: CC[C@@]1(O)C(=O)OCc2c1cc1n(c2=O)Cc2c-1nc1cc3c(cc1c2CNc1cccc(N)c1)OCO3 [Compound 7ad]
- IC50 [1]: 7 nM
- IC50 [2, 16]: 6 nM
- IC50 [3, 17]: 5 nM
- IC50 (U266 cells): 8 nM
- IC50 [4, 18]: 2 nM
- IC50 [5]: 2 nM
- IC50 [6, 19]: 1 nM
- IC50 [7, 20]: 2 nM

Molecule: CC[C@@]1(O)C(=O)OCc2c1cc1n(c2=O)Cc2c-1nc1cc3c(cc1c2CN1CCC(NC(=O)OC(C)(C)C)CC1)OCO3 [Compound 7y]
- IC50 ([2]; camptothecin free drug, 96 h, read-out: BxPC3 IC50): 28 nM
- IC50 ([3]; camptothecin free drug, 96 h, read-out: 786-O IC50): 31 nM
- IC50 ([8]; camptothecin free drug, read-out: Karpas299 IC50): 36 nM
- IC50 ([9]; camptothecin free drug, read-out: DEL IC50): 8 nM
- IC50 ([4]; camptothecin free drug, read-out: L540cy IC50): 15 nM
- IC50 (melanoma cells (A2058); camptothecin free drug, 96 h): 7 nM
- IC50 ([10]; camptothecin free drug, 96 h): 896 nM
- IC50 ([11]; camptothecin free drug, read-out: MDAMB231 IC50): 140 nM
- IC50 ([6]; camptothecin free drug, 96 h, read-out: MOLM-13 IC50): 68 nM
- IC50 ([12]; camptothecin free drug, read-out: DELBVR IC50): 14 nM
- IC50 ([7]; camptothecin free drug, 96 h, read-out: SU-DHL-4 IC50): 23 nM
- IC50 (Ls174T cells; camptothecin free drug, read-out: Ls174T IC50): 17 nM

Molecule: CCc1c(C)c(F)cc2nc3c(c(CN)c12)Cn1c-3cc2c(c1=O)COC(=O)[C@]2(O)CC [Compound 10, (S)-11-(aminomethyl)-4,10-diethyl-8-fluoro-4-hydroxy-9-methyl-1,12-dihydro-14H-pyrano[3′,4′:6,7]indolizino[1,2-b]quinoline-3,14(4H)-dione]
- IC50 ([2]; read-out: BxPC3 IC50, Table 28, CPT free drugs, pancreatic cancer cells BxPC3, 96 h, CellTiter-Glo): 64 nM
- IC50 ([3]; read-out: 786-O IC50, Table 28, CPT free drugs, renal carcinoma cells 786-O, 96 h, CellTiter-Glo): 54 nM
- IC50 ([8]; read-out: Karpas299 IC50, Table 28, CPT free drugs, anaplastic large cell lymphoma cells Karpas299, CellTiter-Glo): 57 nM
- IC50 ([9]; read-out: DEL IC50, Table 28, CPT free drugs, anaplastic large cell lymphoma cells DEL, CellTiter-Glo): 7 nM
- IC50 ([4]; read-out: L540cy IC50, Table 28, CPT free drugs, Hodgkin's lymphoma cells L540cy, CellTiter-Glo): 51 nM
- IC50 (melanoma cells (A2058)): 33 nM
- IC50 [10]: 95 nM
- IC50 ([11]; read-out: MDAMB231 IC50, Table 28, CPT free drugs, breast cancer cells MDA-MB-231, CellTiter-Glo): 59 nM
- IC50 ([6]; read-out: MOLM-13 IC50, Table 28, CPT free drugs, acute myeloid leukemia cells MOLM-13, 96 h, CellTiter-Glo): 149 nM
- IC50 ([12]; read-out: DELBVR IC50, Table 28, CPT free drugs, anaplastic large cell lymphoma cells DELBVR, CellTiter-Glo): 15 nM
- IC50 ([7]; read-out: SU-DHL-4 IC50, Table 28, CPT free drugs, B-lymphocyte cancer cells SU-DHL4, 96 h, CellTiter-Glo): 15 nM
- IC50 (Ls174T cells; read-out: Ls174T IC50, Table 28, CPT free drugs, Ls174T cells, CellTiter-Glo): 33 nM

Molecule: Cathepsin B
- percentage of drug cleaved from the heavy chain (QToF mass spectrometry after 3 h at 37 C, pH 4.5) [13]: percentage of drug cleaved from the heavy chain of non-targeted ADCs 5 and 7 in vitro by Cathepsin B is similar to that found for non-targeted ADC 37
- percentage of drug cleaved from the heavy chain (QToF mass spectrometry after 3 h at 37 C, pH 4.5) [14]: percentage of drug cleaved from the heavy chain of non-targeted ADCs 5 and 7 in vitro by Cathepsin B is similar to that found for non-targeted ADC 37
- percentage of drug cleaved from the heavy chain (QToF mass spectrometry after 3 h at 37 C, pH 4.5) [15]: percentage of drug cleaved from the heavy chain of non-targeted ADCs 5 and 7 in vitro by Cathepsin B is similar to that found for non-targeted ADC 37

Molecule: neutrophil elastase
- percentage of drug cleaved from the heavy chain (QToF mass spectrometry after 3 h at 37 C) [13]: the h00-5 conjugate ... has its heavy chain cleaved by neutrophil elastase to a significantly lower extent than h00-7
- percentage of drug cleaved from the heavy chain (QToF mass spectrometry after 3 h at 37 C) [14]: no proteolosis of h00-5 by neutrophil elastase was observed
- percentage of drug cleaved from the heavy chain (QToF mass spectrometry after 3 h at 37 C) [15]: percentage of drug cleaved from the heavy chain of non-targeted ADC 5 in vitro by neutrophil elastase is lower than that found for non-targeted ADC 37
